Our source for the IC50 values is patent US20240239808A1 (Forma Therapeutics, Inc., priority 2021, published 2024).

T1 sequence (O94782 whole entry G670A/G671A): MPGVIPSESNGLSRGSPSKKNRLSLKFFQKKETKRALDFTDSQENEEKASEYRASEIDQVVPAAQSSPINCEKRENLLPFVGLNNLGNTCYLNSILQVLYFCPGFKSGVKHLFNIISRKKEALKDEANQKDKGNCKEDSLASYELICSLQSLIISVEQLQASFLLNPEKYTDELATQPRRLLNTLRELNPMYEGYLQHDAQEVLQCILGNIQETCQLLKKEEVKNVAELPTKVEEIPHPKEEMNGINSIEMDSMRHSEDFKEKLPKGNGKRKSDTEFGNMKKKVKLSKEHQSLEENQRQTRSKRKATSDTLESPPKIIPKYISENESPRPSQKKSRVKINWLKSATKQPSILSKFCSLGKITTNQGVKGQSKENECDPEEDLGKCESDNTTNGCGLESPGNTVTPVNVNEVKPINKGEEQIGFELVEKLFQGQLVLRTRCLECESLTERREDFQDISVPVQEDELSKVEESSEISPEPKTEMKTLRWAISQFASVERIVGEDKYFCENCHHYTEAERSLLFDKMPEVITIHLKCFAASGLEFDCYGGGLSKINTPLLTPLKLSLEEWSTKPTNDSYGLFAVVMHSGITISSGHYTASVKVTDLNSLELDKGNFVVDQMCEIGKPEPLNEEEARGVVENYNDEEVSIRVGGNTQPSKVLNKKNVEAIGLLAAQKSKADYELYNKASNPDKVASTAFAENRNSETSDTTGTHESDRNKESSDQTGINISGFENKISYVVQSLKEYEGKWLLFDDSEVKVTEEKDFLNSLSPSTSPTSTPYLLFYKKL
T1 sequence (Q8TAF3 whole entry partner): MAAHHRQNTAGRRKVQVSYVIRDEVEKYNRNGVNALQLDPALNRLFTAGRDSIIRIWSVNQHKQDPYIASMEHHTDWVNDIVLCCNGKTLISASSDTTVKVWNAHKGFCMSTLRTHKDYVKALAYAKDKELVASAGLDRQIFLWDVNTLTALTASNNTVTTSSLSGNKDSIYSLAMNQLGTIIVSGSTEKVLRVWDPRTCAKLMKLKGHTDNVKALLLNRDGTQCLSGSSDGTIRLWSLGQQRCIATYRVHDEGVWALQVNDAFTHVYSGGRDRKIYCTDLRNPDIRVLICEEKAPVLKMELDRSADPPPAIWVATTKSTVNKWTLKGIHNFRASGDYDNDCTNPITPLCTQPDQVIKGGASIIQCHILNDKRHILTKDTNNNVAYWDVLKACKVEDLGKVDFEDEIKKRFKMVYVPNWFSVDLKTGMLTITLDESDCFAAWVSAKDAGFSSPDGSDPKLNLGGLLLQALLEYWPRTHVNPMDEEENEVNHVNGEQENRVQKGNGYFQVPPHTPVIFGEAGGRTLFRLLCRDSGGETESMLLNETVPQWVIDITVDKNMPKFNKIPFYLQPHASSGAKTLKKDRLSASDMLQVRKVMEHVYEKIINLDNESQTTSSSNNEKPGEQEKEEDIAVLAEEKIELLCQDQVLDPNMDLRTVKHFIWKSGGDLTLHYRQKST

This experiment addresses T1, USP1, construct USP1 (1-785, GG670, 671AA)/UAF1 (1-677)-Flag (Homo sapiens, UniProt O94782, G670A/G671A).
T1 construct: USP1, construct USP1 (1-785, GG670, 671AA)/UAF1 (1-677)-Flag; Viva; purchased Viva
Description: Ubiquitin-Rhodamine 110 assay for USP1 activity. Type of experiment: biochemical. Conditions: enzyme 25 pM, Ub-Rh110 25 nM, 30 minutes preincubation, 8- or 10-point dilution. How it is done: Example A: Ubitquin-Rhodamine 110 Assay for USP1 Activity
The HTS assay was performed in a final volume of 20 μL in assay buffer containing 20 mM Tris-HCl (pH 8.0, (1M Tris-HCl, pH 8.0 solution; Corning 46-031-CM)), 2 mM CaCl2) (1M Calcium Chloride solution; Sigma #21114) 1 mM GSH (L-Glutathione reduced; Sigma #G4251), 0.01% Prionex ([…] filtered, Sigma #G-0411), and 0.01% Triton X-100. Stock compound solutions were stored at −20° C. as 10 mM in DMSO. Up to 1 month prior to the assay, 2 mM test compounds were pre-dispensed into assay plates (Black, low volume; Corning #3820) and frozen at −20° C. Pre-stamped assay plates were allowed to come to room temperature on the day of the assay. For the screen, 100 nL of 2 mM was pre-dispensed for a final screening concentration of 10 μM (DMSO(fc)=0.5%). The final concentration of the enzyme (USP1, construct USP1 (1-785, GG670, 671AA)/UAF1 (1-677)-Flag; Viva) in the assay was 100 pM. Final substrate (Ub-Rh110; Ubiquitin-Rhodamine 110, R&D Systems #U-555) concentration was 25 nM with [Ub-Rh110]<<Km. 10 μL of 2× enzyme was added to assay plates (pre-stamped with compound) either simultaneously with 2×Ub-Rh110 or preincubated with USP1 40 minutes prior to the addition of 10 μL of 2×Ub-Rh110 to compound plates. Plates were incubated stacked for 45 minutes at room temperature before fluorescence was read on the Envision (Excitation at 485 nm and Emission at 535 nm; Perkin Elmer) or on the PheraSTAR (Excitation at 485 nm and Emission at 535 nm; BMG Labtech).
Nanoliter quantities of either an 8-point or 10-point, 3-fold serial dilution in DMSO were pre-dispensed into assay plates (Perkin Elmer, ProxiPlate-384 F Plus, #6008269) for a final test concentration range of either 25 μM to 11 nM or 25 μM to 1.3 nM, respectively. The final concentration of the enzyme (USP1, construct USP1 (1-785, GG670, 671AA)/UAF1 (1-677)-Flag; Viva) in the assay was 25 pM. Final substrate (Ub-Rh110; Ubiquitin-Rhodamine 110, R&D Systems #U-555) concentration was 25 nM with [Ub-Rh110]<<Km. 5 μL of 2× enzyme was added to assay plates (pre-stamped with compound) preincubated with USP1 for 30 minutes and then 5 μL of 2×Ub-Rh110 was added to assay plates. Plates were incubated stacked for 20 minutes at room temperature before 5 μL of stop solution (final concentration of 10 mM citric acid in assay buffer (Sigma, #251275-500G)). Fluorescence was read on the Envision (Excitation at 485 nm and Emission at 535 nm; Perkin Elmer) or on the PheraSTAR (Excitation at 485 nm and Emission at 535 nm; BMG Labtech).
For both assay formats data were reported as percent inhibition compared with control wells based on the following equation: % inh=[1−((FLU−AveLow)/(AveHigh−AveLow))]×100 where FLU=measured Fluorescence, AveLow=average Fluorescence of no enzyme control (n=16), and AveHigh=average Fluorescence of DMSO control (n=16). IC50 values were determined by curve fitting of the standard 4 parameter logistic fitting algorithm included in the Activity Base software package: IDBS XE Designer Model205. Data is fitted using the Levenburg Marquardt algorithm.
In general, IC50 refers to the midpoint of a concentration-inhibition curve. A higher IC50 goes with weaker potency in that assay. For `CC(C)c1ccccc1-c1ncc2sc(=O)n(Cc3ccc(-c4nc(C(F)(F)F)cn4C)cc3)c2n1` [Example I-1, 5-(2-isopropylphenyl)-3-(4-(1-methyl-4-(trifluoromethyl)-1H-imidazol-2-yl)benzyl)thiazolo[4,5-d]pyrimidin-2(3H)-one], the IC50 is at most 10 nM. In turn, `CC(C)c1ncccc1-c1ncc2c(n1)N(Cc1ccc(-c3nc(C(F)(F)F)cn3C)cc1)CCO2` [Example I-2, 3-[8-([4-[1-methyl-4-(trifluoromethyl)-1H-imidazol-2-yl]phenyl]methyl)-6H,7H,8H-pyrimido[5,4-b][1,4]oxazin-2-yl]-2-(propan-2-yl)pyridine] gave an IC50 of at most 10 nM. Compound `CC(C)c1ncccc1-c1ncc2c(n1)N(Cc1ccc(-c3nc(C(F)(F)F)cn3C)cc1)C(=O)CO2` [Example I-4, 8-([4-[1-methyl-4-(trifluoromethyl)-1H-imidazol-2-yl]phenyl]methyl)-2-[2-(propan-2-yl)pyridin-3-yl]-6H,7H,8H-pyrimido[5,4-b][1,4]oxazin-7-one] yielded an IC50 of 10 to 100 nM. The same measure for `CC(C)c1ncccc1-c1ncc2c(n1)N(Cc1ccc(-c3nc(C(F)(F)F)cn3C)cc1)C(=O)C(C)(C)O2` [Example I-5, 6,6-dimethyl-8-([4-[1-methyl-4-(trifluoromethyl)-1H-imidazol-2-yl]phenyl]methyl)-2-[2-(propan-2-yl)pyridin-3-yl]-6H,7H,8H-pyrimido[5,4-b][1,4]oxazin-7-one]: 10 to 100 nM; for `CC(C)c1ccccc1-c1ncc2c(n1)N(Cc1ccc(-c3nc(C(F)(F)F)cn3C)cc1)C(=O)N(C)C2` [Example I-6, 3-methyl-1-([4-[1-methyl-4-(trifluoromethyl)-1H-imidazol-2-yl]phenyl]methyl)-7-[2-(propan-2-yl)phenyl]-1H,2H,3H,4H-[1,3]diazino[4,5-d]pyrimidin-2-one]: 10 to 100 nM; for `CC(C)c1ccccc1-c1ncc2c(n1)N(Cc1ccc(-c3nc(C(F)(F)F)cn3C)cc1)C(=O)OC2` [Example I-7, 1-([4-[1-methyl-4-(trifluoromethyl)-1H-imidazol-2-yl]phenyl]methyl)-7-[2-(propan-2-yl)phenyl]-1H,2H, 4H-pyrimido[4,5-d][1,3]oxazin-2-one]: at most 10 nM. The same measure for `CC(C)c1ncccc1-c1ncc2c(n1)N(Cc1ccc(-c3nc(C(F)(F)F)cn3C)cc1)C(=O)OC2` [Example I-8, 1-([4-[1-methyl-4-(trifluoromethyl)-1H-imidazol-2-yl]phenyl]methyl)-7-[2-(propan-2-yl)pyridin-3-yl]-1H,2H, 4H-pyrimido[4,5-d][1,3]oxazin-2-one]: 10 to 100 nM.

For `CC(C)c1ncccc1-c1ncc2ccn(Cc3ccc(-c4nc(C(F)(F)F)cn4C)cc3)c2n1` [Example I-9, 3-[7-([4-[1-methyl-4-(trifluoromethyl)-1H-imidazol-2-yl]phenyl]methyl)-7H-pyrrolo[2,3-d]pyrimidin-2-yl]-2-(propan-2-yl)pyridine], the IC50 was at most 10 nM. With `CC(C)c1ncccc1-c1ncc2cnn(Cc3ccc(-c4nc(C(F)(F)F)cn4C)cc3)c2n1` [Example I-10, 3-[1-([4-[1-methyl-4-(trifluoromethyl)-1H-imidazol-2-yl]phenyl]methyl)-1H-pyrazolo[3,4-d]pyrimidin-6-yl]-2-(propan-2-yl)pyridine], the IC50 lay within 10 to 100 nM.

The compound `CC(C)c1ncccc1-c1ncc2c(n1)N(Cc1ccc(-c3nc(C(F)(F)F)cn3C)cc1)C(=O)C21CC1` [Example I-11, 3′-([4-[1-methyl-4-(trifluoromethyl)-1H-imidazol-2-yl]phenyl]methyl)-5′-[2-(propan-2-yl)pyridin-3-yl]-2′,3′-dihydrospiro[cyclopropane-1,1′-pyrrolo[2,3-d]pyrimidine]-2′-one] yielded an IC50 of 10 to 100 nM.

The compound `CC(C)c1ccccc1-c1ncc2oc(=O)n(Cc3ccc(-c4nc(C(F)(F)F)cn4C)cc3)c2n1` [Example I-12, 5-(2-isopropylphenyl)-3-(4-(1-methyl-4-(trifluoromethyl)-1H-imidazol-2-yl)benzyl)oxazolo[4,5-d]pyrimidin-2(3H)-one] displayed an IC50 of at most 10 nM. The result for `CC(C)c1ncccc1-c1ncc2oc(=O)n(Cc3ccc(-c4nc(C(F)(F)F)cn4C)cc3)c2n1` [Example I-13] reads 100 to 1000 nM; that for `CC(C)c1ccccc1-c1ncc2nc(C3CNC3)n(Cc3ccc(-n4cccn4)cc3)c2n1` [Example I-14, 8-(azetidin-3-yl)-2-[2-(propan-2-yl)phenyl]-9-[[4-(1H-pyrazol-1-yl)phenyl]methyl]-9H-purine], 100 to 1000 nM. The result for `CC(C)c1ccccc1-c1ncc2nc(C3COC3)n(Cc3ccc(-n4cccn4)cc3)c2n1` [Example I-15, 8-(oxetan-3-yl)-2-[2-(propan-2-yl)phenyl]-9-[[4-(1H-pyrazol-1-yl)phenyl]methyl]-9H-purine] reads 100 to 1000 nM. With `CC(C)c1ncccc1-c1ncc2c(n1)N(Cc1ccc(-c3nc(C(F)(F)F)cn3C)cc1)C(=O)C2` [Example I-16, 7-([4-[1-methyl-4-(trifluoromethyl)-1H-imidazol-2-yl]phenyl]methyl)-2-[2-(propan-2-yl)pyridin-3-yl]-5H,6H,7H-pyrrolo[2,3-d]pyrimidin-6-one], the IC50 fell in the range of 10 to 100 nM. The same measure for `COc1nc2cnc(-c3cccnc3C(C)C)nc2n1Cc1ccc(-c2nc(C(F)(F)F)cn2C)cc1` [Example I-17, 8-methoxy-9-([4-[1-methyl-4-(trifluoromethyl)-1H-imidazol-2-yl]phenyl]methyl)-2-[2-(propan-2-yl)pyridin-3-yl]-9H-purine]: 100 to 1000 nM. The same measure for `CC(C)c1ccccc1-c1ncc2c(n1)N(Cc1ccc(-c3nc(C(F)(F)F)cn3C)cc1)C(=O)C2` [Example I-18, 7-([4-[1-methyl-4-(trifluoromethyl)-1H-imidazol-2-yl]phenyl]methyl)-2-[2-(propan-2-yl)phenyl]-5H,6H,7H-pyrrolo[2,3-d]pyrimidin-6-one]: at most 10 nM; for `CC(C)c1ncccc1-c1ncc2c(n1)N(Cc1ccc(-c3nc(C(F)(F)F)cn3C3COC3)cc1)C(=O)C2` [Example I-19, 7-([4-[1-(oxetan-3-yl)-4-(trifluoromethyl)-1H-imidazol-2-yl]phenyl]methyl)-2-[2-(propan-2-yl)pyridin-3-yl]-5H,6H,7H-pyrrolo[2,3-d]pyrimidin-6-one]: 100 to 1000 nM; for `CC(C)c1ncccc1-c1ncc2c(n1)N(Cc1ccc(-c3nc(C(F)(F)F)cn3C)cc1)C(=O)CC2` [Example I-20, 8-([4-[1-methyl-4-(trifluoromethyl)-1H-imidazol-2-yl]phenyl]methyl)-2-[2-(propan-2-yl)pyridin-3-yl]-5H,6H,7H,8H-pyrido[2,3-d]pyrimidin-7-one]: 10 to 100 nM.

`COc1ncnc(C2CC2)c1-c1ncc2sc(=O)n(Cc3ccc(-n4nc(C(F)(F)F)cc4C)cc3)c2n1` [Example I-21, 5-(4-cyclopropyl-6-methoxypyrimidin-5-yl)-3-(4-(5-methyl-3-(trifluoromethyl)-1H-pyrazol-1-yl)benzyl)thiazolo[4,5-d]pyrimidin-2(3H)-one] registered an IC50 of at most 10 nM.

In turn, `COc1ncnc(C2CC2)c1-c1ncc2sc(=O)n(Cc3ccc(-c4nc(C(F)(F)F)cn4C)cc3)c2n1` [Example I-22, 5-(4-cyclopropyl-6-methoxypyrimidin-5-yl)-3-(4-(1-methyl-4-(trifluoromethyl)-1H-imidazol-2-yl)benzyl)thiazolo[4,5-d]pyrimidin-2(3H)-one] gave an IC50 of at most 10 nM.
